Source: ChEMBL document CHEMBL4219219, “The synthesis and antistaphylococcal activity of N-sulfonaminoethyloxime derivatives of dehydroabietic acid” (Bioorg Med Chem Lett, 2018)
Converted amounts (≈) assume the structure as drawn. The source made the active and inactive calls. The rule behind the calls is not given here.

Legend:
[1] = tested on: Escherichia coli; test: Antibacterial activity against Escherichia coli AB1157 at 50 ug/ml after 18 hrs by two-fold serial dilution method; assay type: functional, organism-based
[2] = tested on: Staphylococcus aureus; test: Antistaphylococcal activity against Staphylococcus aureus Newman after 18 hrs by two-fold serial dilution method; assay type: functional
[3] = tested on: Staphylococcus aureus; test: Antistaphylococcal activity against aminoglycosides/tetracycline-resistant Staphylococcus aureus NRS-1 after 18 hrs by two-fold serial dilution method; assay type: functional; details: NRS-1, 18 h
[4] = tested on: Staphylococcus aureus; test: Antistaphylococcal activity against erythromycin-resistant Staphylococcus aureus NRS-70 after 18 hrs by two-fold serial dilution method; assay type: functional; details: NRS-70, 18 h
[5] = tested on: Staphylococcus aureus; test: Antistaphylococcal activity against oxacillin/tetracycline-resistant Staphylococcus aureus NRS-100 after 18 hrs by two-fold serial dilution method; assay type: functional; details: NRS-100, 18 h
[6] = tested on: Staphylococcus aureus; test: Antistaphylococcal activity against gentamicin-resistant Staphylococcus aureus NRS-108 after 18 hrs by two-fold serial dilution method; assay type: functional; details: NRS-108, 18 h
[7] = tested on: Staphylococcus aureus; test: Antistaphylococcal activity against linezolid-resistant Staphylococcus aureus NRS-271 containing phage type E-MRSA 15 after 18 hrs by two-fold serial dilution method; assay type: functional; details: NRS-271, 18 h
[8] = Metabolic stability in Sprague-Dawley rat plasma after 0.5 to 24 hrs by LC-MS analysis; assay type: ADME, cell-free
[9] = tested on: Staphylococcus aureus; test: Metabolic stability in Staphylococcus aureus Newman at MIC after 12 hrs by LC-MS analysis; assay type: ADME, organism-based; details: in vivo
[10] = tested on: WiDr; test: Cytotoxicity against human WiDr cells assessed as decrease in cell survival at 20 times MIC after 24 hrs by MTT assay; assay type: cell-based
[11] = tested on: SCLC-21H; test: Cytotoxicity against human SCLC-21H cells assessed as decrease in cell survival at 20 times MIC after 24 hrs by MTT assay; assay type: cell-based
[12] = tested on: J82; test: Cytotoxicity against human J82 cells assessed as decrease in cell survival at 20 times MIC after 24 hrs by MTT assay; assay type: cell-based; details: j82, 24 h
[13] = tested on: HGC-27; test: Cytotoxicity against human HGC27 cells assessed as decrease in cell survival at 20 times MIC after 24 hrs by MTT assay; assay type: cell-based; details: hgc-27, 24 h
[14] = tested on: NCI-H23; test: Cytotoxicity against human H23 cells assessed as decrease in cell survival at 20 times MIC after 24 hrs by MTT assay; assay type: cell-based; details: nci-h23, 24 h
[15] = tested on: HEK-293T; test: Cytotoxicity against HEK293T cells assessed as decrease in cell survival at 20 times MIC after 24 hrs by MTT assay; assay type: cell-based; details: human
[16] = tested on: Staphylococcus aureus; test: Antistaphylococcal activity against Staphylococcus aureus Newman treated with increasing concentration of test compound everyday for 12 hrs measured after 20 days by two-fold serial dilution method; assay type: functional
[17] = tested on: Staphylococcus aureus; test: Antistaphylococcal activity against erythromycin-resistant Staphylococcus aureus NRS-70 treated with increasing concentration of test compound everyday for 12 hrs measured after 20 days by two-fold serial dilution method; assay type: functional

Compound | Activity [1] | MIC [2] [µg/mL] | MIC [3] [µg/mL] | MIC [4] [µg/mL] | MIC [5] [µg/mL] | MIC [6] [µg/mL] | MIC [7] [µg/mL] | Stability [8] | Stability [9] | Activity [10] | Activity [11] | Activity [12] | Activity [13] | Activity [14] | Activity [15] | MIC [16] [µg/mL] | MIC [17] [µg/mL]
CC(C)c1cc2c(cc1Br)[C@@]1(C)CCC[C@@](C)(C(=O)O)[C@@H]1C/C2=N\OCCNS(=O)(=O)c1ccc(C(F)(F)F)cc1 | inactive | 1.56 to 3.13 (≈ 2.37 to 4.75 µM) | 0.78 to 1.56 (≈ 1.18 to 2.37 µM) | 0.78 to 1.56 (≈ 1.18 to 2.37 µM) | 0.78 to 1.56 (≈ 1.18 to 2.37 µM) | 0.78 to 1.56 (≈ 1.18 to 2.37 µM) | 0.78 to 1.56 (≈ 1.18 to 2.37 µM) | Stable | Stable | Non-Toxic | Non-Toxic | Non-Toxic | Non-Toxic | Non-Toxic | Non-Toxic |  | 
Cc1noc(C)c1S(=O)(=O)NCCO/N=C1\C[C@H]2[C@](C)(C(=O)O)CCC[C@]2(C)c2cc(Br)c(C(C)C)cc21 | inactive | 1.56 to 3.13 (≈ 2.55 to 5.13 µM) | 1.56 to 3.13 (≈ 2.55 to 5.13 µM) | 1.56 to 3.13 (≈ 2.55 to 5.13 µM) | 3.13 to 6.25 (≈ 5.13 to 10.2 µM) | 1.56 to 3.13 (≈ 2.55 to 5.13 µM) | 1.56 to 3.13 (≈ 2.55 to 5.13 µM) | Stable | Stable | Non-Toxic | Non-Toxic | Non-Toxic | Non-Toxic | Non-Toxic | Non-Toxic | 6.25 to 12.5 (≈ 10.2 to 20.5 µM) | 6.25 to 12.5 (≈ 10.2 to 20.5 µM)
CC(C)c1cc2c(cc1Br)[C@@]1(C)CCC[C@@](C)(C(=O)O)[C@@H]1C/C2=N\OCCNS(=O)(=O)c1ccccc1F | inactive | 1.56 to 3.13 (≈ 2.56 to 5.13 µM) | 1.56 to 3.13 (≈ 2.56 to 5.13 µM) | 1.56 to 3.13 (≈ 2.56 to 5.13 µM) | 3.13 to 6.25 (≈ 5.13 to 10.3 µM) | 3.13 to 6.25 (≈ 5.13 to 10.3 µM) | 1.56 to 3.13 (≈ 2.56 to 5.13 µM) |  |  |  |  |  |  |  |  |  | 
CC(C)c1cc2c(cc1Br)[C@@]1(C)CCC[C@@](C)(C(=O)O)[C@@H]1C/C2=N\OCCNS(=O)(=O)c1ccc(Br)cc1 | inactive | 0.78 to 1.56 (≈ 1.16 to 2.33 µM) | 0.78 to 1.56 (≈ 1.16 to 2.33 µM) | 0.78 to 1.56 (≈ 1.16 to 2.33 µM) | 0.78 to 1.56 (≈ 1.16 to 2.33 µM) | 0.78 to 1.56 (≈ 1.16 to 2.33 µM) | 0.78 to 1.56 (≈ 1.16 to 2.33 µM) |  |  |  |  |  |  |  |  |  | 
